Reference: patent US4687780A, “Anti-tumor compounds of platinum” (Johnson Matthey PLC, priority 1985, dated 1987)

Tests used:
[1] = reported by Harrap; cited from earlier work
[2] = LD50 (dose level causing 50% deaths), oral administration; assay type: in vivo, female Balb C^- mice; details: suspension in arachis oil
Method: (§1) Additionally, the same compounds were tested for activity against ADJ/PC6A plasmacytoma grown subcutaneously in female Balb C^- mice following oral administration as a suspension in arachis oil. Dosage levels were at 100μ mole/kg of body weight for pharmacokinetic tests to establish the extent of absorption into the systemic circulation.
(§2) Results are presented in terms of concentration (μg/ml) of Pt in the blood and cumulative percentage dose in urine, cage wash and faeces, all after specified time intervals. Results for anti-tumor effect are expressed as LD50 (mg/kg), ED90 (mg/kg), and TI (LD50 /ED90). The figures for LD50 (the dose level causing 50% deaths) and ED90 (the dose level causing a 90% reduction in tumor size) are determined by administering dosage levels ranging from lethal to non-tumor inhibitory. The therapeutic index (TI) is an indication of the selectivity of the compound as an anti-tumor agent.

L1210 leukaemia = assay: anti-tumor activity against L1210 leukaemia in CDF1 male mice, i.p. single dose Day 1; assay type: in vivo; parameters: median survival time (MST): unit not given here; details: for % T/C (MST/MST control×100) / median survival time (MST): single dose Day 1; for number of mice alive (MA) / average weight change (AWC): single dose; for number of mice alive (MA): at Day 5; for average weight change (AWC): by Day 5
Method: (§3) Compounds according to the invention were screened for anti-tumor activity against L1210 leukaemia and B16 melanoma in mice. The compounds were administered intraperitoneally as solutions or suspensions in water and "Tween" 80 as carrier to CDF1 male mice (L1210) and BDF1 female mice (B16). […] For each dose level, results are quoted in terms of median survival time (MST); the comparative effect (i.e. MST/MST control×100); average weight change (AWC) by Day 5 (L1210) or Day 6 (B16); and the number of mice alive (MA) at Day 5 (L1210) or Day 10 (B16).
(§4) Results were as follows for the compounds as prepared in Examples 3 and 4.
1. L1210 (1×10^6 cells): treatment consisted of single dose on Day 1.

malignant tumor = details: cited from earlier work
[3] = pharmacokinetic tests: Pt in blood and cumulative percentage dose in urine, cage wash and faeces after oral administration; assay type: in vivo, female Balb C^- mice; details: oral, JM-8 at 50 mg/kg
Method: as §1, §2

ADJ/PC6A plasmacytoma = assay: activity against ADJ/PC6A plasmacytoma grown subcutaneously in mice, oral administration; assay type: in vivo, female Balb C^- mice; details: for ED90 (dose level causing a 90% reduction in tumor size): suspension in arachis oil
Method: as §1, §2

B16 melanoma = assay: anti-tumor activity against B16 melanoma in BDF1 female mice, i.p. 9 daily doses; assay type: in vivo; parameters: median survival time (MST): unit not given here; details: for % T/C (MST/MST control×100) / median survival time (MST): 9 daily doses from Day 1; for number of mice alive (MA) / average weight change (AWC): 9 daily doses; for number of mice alive (MA): at Day 10; for average weight change (AWC): by Day 6
Method: as §3, §4
2. B16 (0.5 ml 10% BREI): treatment consisted of 9 daily doses beginning at Day 1.

For N.N.O=C([O-])C(O)C(=O)[O-].[Pt+2] [JM-5, diammine(2-hydroxymalonato)platinum(II)], the screening results [1] is listed as “only moderately promising on screening results”.

In the case of [NH2][Pt]1([NH2])[O]C(=O)C2(CCC2)C(=O)[O]1 [JM-8, reference compound], the “LD50 (dose level causing 50% deaths)” value [2] is reported as 235 mg/kg, the “% T/C (MST/MST control×100)” value (L1210 leukaemia; 4 mg/kg) is reported as 100% and the “% T/C (MST/MST control×100)” value (L1210 leukaemia; 8 mg/kg) is reported as 121%. The “% T/C (MST/MST control×100)” value (L1210 leukaemia; 16 mg/kg) was 143%, the “% T/C (MST/MST control×100)” value (L1210 leukaemia; 32 mg/kg) was 171% and the “% T/C (MST/MST control×100)” value (L1210 leukaemia; 64 mg/kg) was 150%. The “% T/C (MST/MST control×100)” value (L1210 leukaemia; 128 mg/kg) was 86%, the “Phase I clinical trial outcome” value (malignant tumor; Phase I, reported by Harrap) was “reasonably promising on a Phase I clinical trial” and the “side-effects in Phase I clinical trial” value (malignant tumor; Phase I, reported by Harrap) was “myelosuppression and to a lesser extent vomiting remained troublesome”. The “Blood conc. of Pt” value ([3]; 1 hr) was 2.4 μg/ml of whole blood, the “Blood conc. of Pt” value ([3]; 2 hrs) was 1.7 μg/ml of whole blood and the “Blood conc. of Pt” value ([3]; 4 hrs) was 0.72 μg/ml of whole blood. The “Blood conc. of Pt” value ([3]; 7 hrs) was 0.63 μg/ml of whole blood, the “Blood conc. of Pt” value ([3]; 24 hrs) was 0.25 μg/ml of whole blood and the “Urine dose (cumulative %)” value ([3]; 24 hrs) was 10.3%. The “Blood conc. of Pt” value ([3]; 48 hrs) was 0.25 μg/ml of whole blood, the “Urine dose (cumulative %)” value ([3]; 48 hrs) was 10.8% and the “therapeutic index TI (LD50/ED90)” value (ADJ/PC6A plasmacytoma) was 2.4. For the same compound, the “ED90 (dose level causing a 90% reduction in tumor size)” value (ADJ/PC6A plasmacytoma) was 99 mg/kg, the “% T/C (MST/MST control×100)” value (B16 melanoma; 2 mg/kg) was 112% and the “% T/C (MST/MST control×100)” value (B16 melanoma; 4 mg/kg) was 115%. For the same compound, the “% T/C (MST/MST control×100)” value (B16 melanoma; 8 mg/kg) was 150%, the “% T/C (MST/MST control×100)” value (B16 melanoma; 16 mg/kg) was 176% and the “% T/C (MST/MST control×100)” value (B16 melanoma; 32 mg/kg) was 176%.

With N.N.[Cl][Pt][Cl] [cisplatin, cis-diamminedichloroplatinum(II), reference compound] the “% T/C (MST/MST control×100)” value (L1210 leukaemia; 4 mg/kg) was 146%, the “median survival time (MST)” value (L1210 leukaemia; 4 mg/kg) was 9.5 and the “number of mice alive (MA)” value (L1210 leukaemia; 4 mg/kg) was 6/6. The “average weight change (AWC)” value (L1210 leukaemia; 4 mg/kg) was -0.8 g, the “% T/C (MST/MST control×100)” value (L1210 leukaemia; 6 mg/kg) was 169% and the “median survival time (MST)” value (L1210 leukaemia; 6 mg/kg) was 11.0. For the same compound, the “number of mice alive (MA)” value (L1210 leukaemia; 6 mg/kg) was 6/6, the “average weight change (AWC)” value (L1210 leukaemia; 6 mg/kg) was -3.2 g and the “% T/C (MST/MST control×100)” value (L1210 leukaemia; 8 mg/kg) was 192%. The “median survival time (MST)” value (L1210 leukaemia; 8 mg/kg) was 12.5, the “number of mice alive (MA)” value (L1210 leukaemia; 8 mg/kg) was 6/6 and the “average weight change (AWC)” value (L1210 leukaemia; 8 mg/kg) was -4.6 g. The “% T/C (MST/MST control×100)” value (L1210 leukaemia; 10 mg/kg) was 123%, the “median survival time (MST)” value (L1210 leukaemia; 10 mg/kg) was 8.0 and the “number of mice alive (MA)” value (L1210 leukaemia; 10 mg/kg) was 6/6. For the same compound, the “average weight change (AWC)” value (L1210 leukaemia; 10 mg/kg) was -4.7 g, the “treatment of malignant tumor” value (malignant tumor; certain forms of malignant tumor in humans) was “effective for the treatment of certain forms of malignant tumor in humans” and the “ED90 (dose level causing a 90% reduction in tumor size)” value (ADJ/PC6A plasmacytoma) was 24 mg/kg. The “% T/C (MST/MST control×100)” value (B16 melanoma; 0.4 mg/kg) was 131%, the “median survival time (MST)” value (B16 melanoma; 0.4 mg/kg) was 25.5 and the “number of mice alive (MA)” value (B16 melanoma; 0.4 mg/kg) was 10/10. For the same compound, the “average weight change (AWC)” value (B16 melanoma; 0.4 mg/kg) was -0.9 g, the “% T/C (MST/MST control×100)” value (B16 melanoma; 0.8 mg/kg) was 164% and the “median survival time (MST)” value (B16 melanoma; 0.8 mg/kg) was 32.0. The “number of mice alive (MA)” value (B16 melanoma; 0.8 mg/kg) was 10/10, the “average weight change (AWC)” value (B16 melanoma; 0.8 mg/kg) was -1.5 g and the “% T/C (MST/MST control×100)” value (B16 melanoma; 1.6 mg/kg) was 187%. For the same compound, the “median survival time (MST)” value (B16 melanoma; 1.6 mg/kg) was 36.5, the “number of mice alive (MA)” value (B16 melanoma; 1.6 mg/kg) was 10/10 and the “average weight change (AWC)” value (B16 melanoma; 1.6 mg/kg) was -3.1 g. For the same compound, the “% T/C (MST/MST control×100)” value (B16 melanoma; 2.4 mg/kg) was 231%, the “median survival time (MST)” value (B16 melanoma; 2.4 mg/kg) was 45.0 and the “number of mice alive (MA)” value (B16 melanoma; 2.4 mg/kg) was 10/10. For the same compound, the “average weight change (AWC)” value (B16 melanoma; 2.4 mg/kg) was -3.9 g.

For CCC(C(=O)[O-])C(=O)[O-].N.N.[Pt+2] [JM-10, diammine(2-ethylmalonato)-platinum(II)], the screening results [1] is given as “only moderately promising on screening results”.
